According to patent US8735388B2, “Heterocyclic compounds with affinity to muscarinic receptors” (Abbvie B. V. A., priority 2007, dated 2014):

Legend:
[1] = test system: Muscarine M1 (GPCR-A-MA-ACH M1); test: Muscarine M1 functional assay, isolated organ (vas deferens, field-stimulated); details: assay characteristic; Muscarine M1, rabbit vas deferens, inhibition of twitch contraction; read-out: Reference Agonist Ligand EC50
Description: Compounds were dissolved in DMSO (10 mM) and diluted in assay buffer to test concentration. Prime testing was at 1 μM; for actives in antagonist mode (PI, percent inhibition with respect to reference agonist and blank>30%) as well as actives in agonist mode (PS, percent stimulation with respect to reference agonist and blank>30%) testing was continued at lower concentrations in 10-fold dilutions: 0.1 μM, 0.01 μM, etc.
The tissues were exposed to a maximal concentration of the respective reference agonist to verify responsiveness and to obtain a control response. Following extensive washings and recovery of the initial state, the tissues were exposed to the test compounds or the same agonist. […]
The parameters measured were the maximum change in the amplitude of the electrically-evoked contractions (M1 and M2 receptor assays) or in tension (M3 receptor assay) induced by each compound concentration. The results are expressed as a percent of the control agonist-induced response. The EC50 values of the reference agonists (concentration producing a half-maximum response) and IC50 values of the reference antagonists (concentration producing a half-maximum inhibition of the agonist-induced response) were calculated by […] analysis of their concentration-response curves.

[2] = molecular target: T1, Muscarine M3 (GPCR-A-MA-ACH M3) (Cavia porcellus, UniProt H0W1Z3); test: Muscarine M3 functional assay, isolated organ (ileum), agonist and antagonist mode; parameters: species or system Guinea Pig
T1 construct: from tissue; host or cells: guinea pig ileum
T1 sequence (H0W1Z3 1-590): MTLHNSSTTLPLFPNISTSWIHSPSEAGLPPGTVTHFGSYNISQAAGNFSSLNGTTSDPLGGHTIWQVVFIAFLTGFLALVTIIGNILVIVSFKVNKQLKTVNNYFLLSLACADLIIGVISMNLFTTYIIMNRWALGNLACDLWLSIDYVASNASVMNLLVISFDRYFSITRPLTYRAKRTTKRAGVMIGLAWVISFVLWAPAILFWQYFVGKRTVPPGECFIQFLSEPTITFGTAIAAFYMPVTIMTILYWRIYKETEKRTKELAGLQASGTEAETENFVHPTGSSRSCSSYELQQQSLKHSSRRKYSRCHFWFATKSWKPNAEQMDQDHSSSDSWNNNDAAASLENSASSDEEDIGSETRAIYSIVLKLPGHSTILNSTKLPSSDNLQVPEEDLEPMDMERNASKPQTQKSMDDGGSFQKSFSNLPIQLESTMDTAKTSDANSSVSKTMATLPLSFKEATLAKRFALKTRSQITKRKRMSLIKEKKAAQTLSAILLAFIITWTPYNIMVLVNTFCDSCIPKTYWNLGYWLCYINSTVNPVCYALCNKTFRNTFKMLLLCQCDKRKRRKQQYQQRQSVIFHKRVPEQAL

[3] = molecular target: T2, Muscarine M2 (GPCR-A-MA-ACH M2) (Homo sapiens, UniProt P08172); details: read-out: Ligand Kd; cited from earlier work
T2 construct: expressed in transfected cells; host or cells: CHO cells
T2 sequence (P08172 1-466): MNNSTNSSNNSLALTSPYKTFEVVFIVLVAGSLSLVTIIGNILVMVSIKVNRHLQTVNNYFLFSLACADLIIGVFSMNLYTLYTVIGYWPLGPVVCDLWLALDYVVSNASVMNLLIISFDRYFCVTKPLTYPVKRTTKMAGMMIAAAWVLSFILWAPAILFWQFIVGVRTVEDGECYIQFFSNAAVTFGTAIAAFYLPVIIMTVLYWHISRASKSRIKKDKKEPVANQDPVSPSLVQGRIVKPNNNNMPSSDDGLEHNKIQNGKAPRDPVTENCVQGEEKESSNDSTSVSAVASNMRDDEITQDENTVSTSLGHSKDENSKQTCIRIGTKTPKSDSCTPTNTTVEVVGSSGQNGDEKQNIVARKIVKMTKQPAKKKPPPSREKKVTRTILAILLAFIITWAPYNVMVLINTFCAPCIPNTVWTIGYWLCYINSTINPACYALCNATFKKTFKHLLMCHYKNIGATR

[4] = molecular target: T3, Muscarine M4 (GPCR-A-MA-ACH M4) (Homo sapiens, UniProt P08173); details: read-out: Ligand Kd; cited from earlier work
T3 construct: expressed in transfected cells; host or cells: CHO cells
T3 sequence (P08173 1-479): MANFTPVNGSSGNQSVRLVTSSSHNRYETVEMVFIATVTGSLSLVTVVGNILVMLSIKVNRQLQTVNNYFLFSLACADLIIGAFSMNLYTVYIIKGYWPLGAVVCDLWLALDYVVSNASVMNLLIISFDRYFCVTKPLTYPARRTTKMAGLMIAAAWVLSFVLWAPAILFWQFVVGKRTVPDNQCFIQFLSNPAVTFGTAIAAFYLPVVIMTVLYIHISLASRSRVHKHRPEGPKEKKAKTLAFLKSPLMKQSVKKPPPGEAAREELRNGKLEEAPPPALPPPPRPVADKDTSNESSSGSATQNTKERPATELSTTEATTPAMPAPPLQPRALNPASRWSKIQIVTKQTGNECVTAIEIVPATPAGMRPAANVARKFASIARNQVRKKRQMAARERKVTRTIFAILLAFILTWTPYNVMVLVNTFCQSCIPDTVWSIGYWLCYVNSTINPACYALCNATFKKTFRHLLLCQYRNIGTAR

[5] = in words, background section; cited from earlier work
[6] = Stability in human liver homogenate (metabolic stability in vitro); type: in vitro ADME; details: read-out: t ½
Description: DÖRJE, F., WESS, J., LAMBRECHT, G., TACKE, R., […], E. and BRANN, M. R. (1991) Antagonist binding profiles of five cloned human muscarinic receptor subtypes. J. Pharmacol. Exp. Ther., 256: 727-733. • […], M. H. (1990) Rat hippocampal muscarinic autoreceptors are similar to the M2 (cardiac) subtype: comparison with hippocampal M1, atrial M2 and ileal M3 receptors. Brit. J. Pharmacol., 99: 753-761. • PERALTA, E. G., ASHKENAZI, A., WINSLOW, J. W., SMITH, D. H., […], J. and CAPON, D. J. (1987) Distinct primary structures, ligand-binding properties and tissue-specific expression of four human muscarinic acetylcholine receptors. EMBO. J., 6: 3923-3929. Determination of Metabolic Stability (In Vitro)
Method used according to procedures described by DI, L. et al., Journal of Biomolecular Screening, Vol. 8, No. 4, 453-462 (2003).

With `C[N+](C)(C)CC#CCOC(=O)Nc1cccc(Cl)c1.[Cl-]` [McN-A-343, reference compound] the EC50 [1] was 250 nM and the “Cell funct. Musc. M3 Agonism pEC50” value [2] was 6.9.
In the case of `CCCN(CCC)CC1CCCCN1CCNC(=O)N1c2ccccc2C(=O)Nc2cccnc21` (stereo not drawn) [Compound 3H-AFDX384, 3H-AFDX384], the Kd [3] is listed as 4.3 nM.
In the case of 3H-Oxotremorine, the Kd [4] is listed as 4.5 nM.
For `CCCCCCOc1nsnc1C1=CCCN(C)C1` [Xanomeline, reference compound], the “(in vitro) metabolic stability” value [5] is given as “relatively low” and the half-life [6] is given as 17 min.
